Assay results as given in PubChem BioAssay (NCI).
Values joined by “and” are separate entries in the source; they are usually repeats but may differ in a detail not shown here. Identical values can stand only once.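 Briefly, cells in 96-well plates were exposed to five compound concentrations for 48 h, and endpoints were estimated by linear interpolation. GI50 marks 50% less growth. TGI: concentration producing complete growth inhibition.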

Test system: MDA-MB-468 breast
Experiment: DTP human tumour cell line panel, 48 h

SMILES	GI50	TGI
FC(F)(F)c1ccc(-c2nc(-c3nc4cc(Cl)c(Cl)cc4[nH]3)c3ccccn23)cc1	3.05 µM	> 100 µM
CNC(=O)c1cc(COc2nnc(Nc3ccc(Cl)cc3)c3ccoc23)ccn1	6.94 µM and > 10 µM	30.9 µM and > 10 µM
COc1cc(-c2nn3c(/C=C4/C(=O)Nc5ccccc54)c(-c4ccc(C)cc4)nc3s2)cc(OC)c1OC	4.84 µM	30.6 µM
COc1cc2c(cc1OCCCN1CCN(CCCOc3cc4c(cc3OC)C(=O)N3CCC[C@H]3C=N4)CC1)C=CC(C)(C)O2	0.469 µM	2.45 µM
OCC1OC(c2scc3c(=S)nc[nH]c23)C(O)C1O (stereo not given)	8.39 µM	> 100 µM
O=P([O-])(O)OP(=O)([O-])O.[NH-][C@H]1CCCC[C@@H]1[NH-].[OH-].[OH-].[Pt+4]	18.8 µM	39.9 µM
Cc1cc(C)nc(NC(N)=NCCc2ccccc2)n1	1.91 µM	8.95 µM
Cn1ccnc1C(=O)/C=C/c1ccc(NC(=O)c2ccc(F)cc2)cc1	2.87 µM	15.9 µM
COC1=CC(c2ccc[nH]2)=N/C1=C\c1[nH]c(C)c(C(=O)OCc2ccccc2)c1C	0.0584 µM	0.73 µM
O=S(=O)(Nc1ncccn1)c1ccc(N=Nc2ccc(O)c3ncccc23)cc1	8.83 µM	31.2 µM
CC(=O)C1=C(O)C=C2Oc3c(C(=O)/C=C/c4cc(C(F)(F)F)cc(C(F)(F)F)c4)c(O)c(C)c(O)c3[C@]2(C)C1=O	1.29 µM	4.46 µM
Cc1c2cc[nH]c(=O)c2c(C)c2c1[nH]c1cc(OCCN3CCN(C)CC3)ccc12	0.355 µM	1.87 µM
CC1=C([Se]CC(OC(=O)[C@@H](CSSC(C)(C)C)NC(=O)OC(C)(C)C)C(=O)NC(C)(C)C)C(=O)c2ccccc2C1=O (stereo not given in full)	1.66 µM	3.77 µM
COc1ccc(-c2[nH]ncc2-c2cc3c(c(OC)c2)OCC(=O)N3)cc1	0.354 µM	28.4 µM
C=CC(=O)Nc1ccc(Nc2nccc(-c3ccc(N4CCCC4)c(C#N)c3)n2)cc1	7.43 µM	> 25 µM
O=C(/C=C/c1ccc(B(O)O)cc1)/C=C/c1ccc(B(O)O)cc1	1.72 µM	4.34 µM
Cc1ccc(C(=O)N(CCCN)[C@@H](c2nc3cc(Cl)ccc3c(=O)n2Cc2ccccc2)C(C)C)cc1	< 0.01 µM	< 0.01 µM
CN(C)CCCOc1ccccc1NC1=C(Cl)C(=O)C(Nc2ccccc2OCCCN(C)C)=C(Cl)C1=O	0.175 µM	0.352 µM
O=[N+]([O-])c1ccc(Nc2ccccc2-c2ccccc2)c2nonc12	5.2 µM	30.5 µM
Cc1ccccc1NC(=S)Nc1ccccn1	11.8 µM	81.2 µM
CN1CCc2cc3c(cc2C1O)OCO3 (stereo not given)	16 µM and > 100 µM	34.4 µM and > 100 µM
Nc1ccn(C2OC(CO)C(O)C2F)c(=O)n1 (stereo not given)	> 5000 µM	> 5000 µM
COC(=O)[C@@H](NC(=O)NC(=O)NC(=O)CI)C(C)C	3.89 µM	16 µM
Cn1cc(-c2nonc2-c2c[nH]c3ccccc23)c2ccccc21	0.304 µM	3.12 µM
COc1cc(C(=O)OCCCCCCCCCCC[P+](c2ccccc2)(c2ccccc2)c2ccccc2)ccc1O	0.284 µM	1.09 µM
Cc1nc2ccc(CN(C)c3ccc(C(=O)N[C@@H](CCC(=O)O)C(=O)O)s3)cc2c(=O)[nH]1	0.0578 µM	> 100 µM
CN1CCN(c2ccc(C(=O)Nc3n[nH]c4ccc(Cc5cc(F)cc(F)c5)cc34)c(NC3CCOCC3)c2)CC1	1.35 µM	3.09 µM and 2.91 µM
C[n+]1c(/C=C\C=C\N2CCCCC2)sc2ccccc21	0.238 µM	3.8 µM
Cc1[nH]ncc1-c1cc2nc(C3CC4CCN3CC4)[nH]c(=O)c2s1 (stereo not given)	9.05 µM	32.2 µM
CO[C@H](C(=O)[C@@H](O)[C@@H](C)O)[C@@H]1Cc2cc3cc(O[C@H]4C[C@@H](O[C@H]5C[C@@H](O)[C@H](O)C(C)O5)[C@H](O)C(C)O4)c(C)c(O)c3c(O)c2C(=O)[C@H]1O[C@H]1C[C@@H](O[C@H]2C[C@@H](O[C@H]3C[C@@H](OC)[C@H](O)C(C)O3)[C@@H](O)C(C)O2)C(O)(O)C(C)O1 (stereo not given in full)	0.138 µM	1.17 µM
